In patent US11590233B2, “Porphyrin compounds and compositions useful for treating cancer” (OncoSelect Therapeutics, LLC, priority 2016, dated 2023):

Columns and labels:
a cancer cell line = assay: TCPP uptake by a cancer cell treated with different inhibitors of endocytosis (FIG. 3); format: cell-based, human
Excerpt: (§1) Porphyrin tetrakis(4-carboxyphenyl)porphyrin (TCPP) uptake by a panel of human lung cancer cell lines including, HCC15, H157, and H358 were examined using flow cytometry in under varying conditions to manipulate clathrin-dependent and independent endocytosis by chemical inhibitors. […] It has been speculated that preferential porphyrin uptake by cancer cells as compared to non-cancer cells is facilitated by the increased number of LDL receptor (LDLR) on the surface of cancer cells.

HCC15, H157 and H358 = assay: TCPP uptake in cancer cell lines under sucrose or cold temperature (FIG. 2); format: cell-based, human
Excerpt: as §1

HCC15 = assay: TCPP uptake in cancer cells vs non-cancer cells by flow cytometry; format: cell-based, human; conditions: 10 ug/ml, HCC15 vs bone marrow cells
Excerpt: (§2) Porphyrin tetrakis(4-carboxyphenyl)porphyrin (TCPP) uptake by a panel of human lung cancer cell lines including, HCC15, H157, and H358 were examined using flow cytometry in under varying conditions to manipulate clathrin-dependent and independent endocytosis by chemical inhibitors. Referring now to FIG. 1, TCPP uptake in cancer cells (HCC15) as compared to bone marrow cells in a dose dependent manner is illustrated. Similar results are observed with mouse normal lung cells as is shown for bone marrow cells. The uptake of TCPP by HCC15 is greater than 2-fold at 10 ug/ml as compared to the non-cancer cells. […] Chlorpromazine, an antagonist of clathrin-mediated endocytosis, inhibited TCPP uptake in a cancer cell line by up to 80% as is illustrated in FIG. 3. In contrast, the clathrin-independent endocytosis inhibitor filipin had no effect on TCPP uptake. It has been speculated that preferential porphyrin uptake by cancer cells as compared to non-cancer cells is facilitated by the increased number of LDL receptor (LDLR) on the surface of cancer cells. To examine LDLR contribution on TCPP uptake, lung cancer cells were manipulated to express no LDLR, which reduced TCPP uptake by only 20%.

[1] = test system: human fibroblasts without functional LDLR; assay: TCPP uptake in human fibroblasts without functional LDLR; format: cell-based
lung cancer cells = assay: TCPP uptake in lung cancer cells manipulated to express no LDLR; format: cell-based, human; conditions: lung cancer cells expressing no LDLR
Excerpt: as §2

CCCCC[C@@H](O)[C@H]1C(=O)O[C@H](C)[C@@H](O)/C=C/C=C/C=C/C=C/C=C(\C)[C@@H](O)C[C@H](O)C[C@H](O)C[C@H](O)C[C@H](O)C[C@H](O)C[C@@H]1O [filipin]
effect on TCPP uptake (a cancer cell line; clathrin-independent endocytosis inhibitor): no effect

OC[C@H]1O[C@@](CO)(O[C@H]2O[C@H](CO)[C@@H](O)[C@H](O)[C@H]2O)[C@@H](O)[C@@H]1O [sucrose]
inhibition of TCPP uptake by sucrose (HCC15, H157 and H358; flow cytometry): moderately inhibited

CN(C)CCCN1c2ccccc2Sc2ccc(Cl)cc21 [Chlorpromazine]
inhibition of TCPP uptake (a cancer cell line; antagonist of clathrin-mediated endocytosis, a cancer cell line): up to 80%

O=C(O)c1ccc(-c2c3nc(c(-c4ccc(C(=O)O)cc4)c4ccc([nH]4)c(-c4ccc(C(=O)O)cc4)c4nc(c(-c5ccc(C(=O)O)cc5)c5ccc2[nH]5)C=C4)C=C3)cc1 [TCPP, tetrakis(4-carboxyphenyl)porphyrin]
uptake of TCPP by HCC15 as compared to the non-cancer cells (HCC15): greater than 2 fold
inhibition of TCPP uptake by cold temperature (HCC15, H157 and H358; cold temperature): nearly completely inhibited
inhibition of TCPP uptake [1]: no inhibition
reduction of TCPP uptake (lung cancer cells): 20%
